Experimental data reported in ChEMBL document CHEMBL2010711, “Synthesis and comparative evaluation of 4-oxa- and 4-aza-podophyllotoxins as antiproliferative microtubule destabilizing agents” (Bioorg Med Chem Lett, 2012).
The source made the active and inactive calls.

What was measured:
[1] = tested on: RPMI-8226; test: Cytotoxicity against human RPMI8226 cells after 48 hrs by trypan blue dye exclusion assay; format: functional; details: RPMI-8226, 48 h
[2] = tested on: SN12C; test: Cytotoxicity against human SN12C cells after 48 hrs by trypan blue dye exclusion assay; format: functional
[3] = tested on: LOX IMVI; test: Cytotoxicity against human LOXIMVI cells after 48 hrs by trypan blue dye exclusion assay; format: functional
[4] = tested on: UACC-62; test: Cytotoxicity against human UACC62 cells after 48 hrs by trypan blue dye exclusion assay; format: functional; details: UACC-62, 48 h
[5] = tested on: BT-549; test: Cytotoxicity against human BT549 cells after 48 hrs by trypan blue dye exclusion assay; format: functional; details: BT-549, 48 h
[6] = tested on: U-251; test: Cytotoxicity against human U251 cells after 48 hrs by trypan blue dye exclusion assay; format: functional; details: U-251, 48 h
[7] = tested on: SK-OV-3; test: Cytotoxicity against human SKOV3 cells after 48 hrs by trypan blue dye exclusion assay; format: functional; details: SK-OV-3, 48 h
[8] = tested on: A498; test: Cytotoxicity against human A498 cells after 48 hrs by trypan blue dye exclusion assay; format: functional; details: A498, 48 h
[9] = Cytotoxicity against human Hs 578T cells after 48 hrs by trypan blue dye exclusion assay; format: functional
[10] = tested on: RXF 393; test: Cytotoxicity against human RXF393 cells after 48 hrs by trypan blue dye exclusion assay; format: functional; details: RXF 393, 48 h
[11] = tested on: Paracentrotus lividus; test: Antimitotic activity against Paracentrotus lividus embryo assessed as cleavage alteration at 2 fold less effective threshold concentration after 2.5 to 6 hrs; format: functional, organism-based
[12] = tested on: MDA-MB-468; test: Cytotoxicity against human MDA-MB-468 cells after 48 hrs by trypan blue dye exclusion assay; format: functional; details: MDA-MB-468, 48 h
[13] = tested on: OVCAR-3; test: Cytotoxicity against human OVCAR3 cells after 48 hrs by trypan blue dye exclusion assay; format: functional; details: OVCAR-3, 48 h
[14] = tested on: CCRF-CEM; test: Cytotoxicity against human CCRF-CEM cells after 48 hrs by trypan blue dye exclusion assay; format: functional
[15] = tested on: MCF7; test: Cytotoxicity against human MCF7 cells after 48 hrs by trypan blue dye exclusion assay; format: functional; details: MCF7, 48 h
[16] = tested on: HCT-15; test: Cytotoxicity against human HCT15 cells after 48 hrs by trypan blue dye exclusion assay; format: functional; details: HCT-15, 48 h
[17] = tested on: Paracentrotus lividus; test: Antimitotic activity against Paracentrotus lividus embryo assessed as cleavage arrest at 2 fold less effective threshold concentration after 2.5 to 6 hrs; format: functional, organism-based
[18] = tested on: SNB-19; test: Cytotoxicity against human SNB19 cells after 48 hrs by trypan blue dye exclusion assay; format: functional; details: SNB-19, 48 h
[19] = tested on: NCI/ADR-RES; test: Cytotoxicity against human NCI/ADR-RES cells after 48 hrs by trypan blue dye exclusion assay; format: functional
[20] = tested on: SF-295; test: Cytotoxicity against human SF295 cells after 48 hrs by trypan blue dye exclusion assay; format: functional; details: SF-295, 48 h
[21] = tested on: TK-10; test: Cytotoxicity against human TK10 cells after 48 hrs by trypan blue dye exclusion assay; format: functional; details: TK-10, 48 h
[22] = tested on: Malme-3M; test: Cytotoxicity against human MALME-3M cells after 48 hrs by trypan blue dye exclusion assay; format: functional
[23] = tested on: OVCAR-5; test: Cytotoxicity against human OVCAR5 cells after 48 hrs by trypan blue dye exclusion assay; format: functional; details: OVCAR-5, 48 h
[24] = tested on: Paracentrotus lividus; test: Microtubule destabilizing activity in Paracentrotus lividus embryo assessed as embryo spinning at 2 fold less effective threshold concentration after 15 mins to 20 hrs; format: functional, organism-based
[25] = tested on: NCI-H460; test: Cytotoxicity against human NCI-H460 cells after 48 hrs by trypan blue dye exclusion assay; format: functional; details: NCI-H460, 48 h
[26] = tested on: PC-3; test: Cytotoxicity against human PC3 cells after 48 hrs by trypan blue dye exclusion assay; format: functional; details: PC-3, 48 h
[27] = tested on: HCC 2998; test: Cytotoxicity against human HCC2998 cells after 48 hrs by trypan blue dye exclusion assay; format: functional; details: HCC 2998, 48 h
[28] = tested on: HOP-62; test: Cytotoxicity against human HOP62 cells after 48 hrs by trypan blue dye exclusion assay; format: functional; details: HOP-62, 48 h
[29] = tested on: UACC-257; test: Cytotoxicity against human UACC257 cells after 48 hrs by trypan blue dye exclusion assay; format: functional; details: UACC-257, 48 h
[30] = tested on: HL-60(TB); test: Cytotoxicity against human HL-60(TB) cells after 48 hrs by trypan blue dye exclusion assay; format: functional; details: HL-60, 48 h
[31] = tested on: SK-MEL-5; test: Cytotoxicity against human SK-MEL-5 cells after 48 hrs by trypan blue dye exclusion assay; format: functional; details: SK-MEL-5, 48 h
[32] = tested on: SF-268; test: Cytotoxicity against human SF268 cells after 48 hrs by trypan blue dye exclusion assay; format: functional; details: SF-268, 48 h
[33] = tested on: SNB-75; test: Cytotoxicity against human SNB75 cells after 48 hrs by trypan blue dye exclusion assay; format: functional; details: SNB-75, 48 h
[34] = tested on: IGROV-1; test: Cytotoxicity against human IGROV1 cells after 48 hrs by trypan blue dye exclusion assay; format: functional; details: IGROV-1, 48 h
[35] = tested on: SF-539; test: Cytotoxicity against human SF539 cells after 48 hrs by trypan blue dye exclusion assay; format: functional; details: SF-539, 48 h
[36] = tested on: MDA-MB-435; test: Cytotoxicity against human MDA-MB-435 cells after 48 hrs by trypan blue dye exclusion assay; format: functional; details: MDA-MB-435, 48 h
[37] = tested on: SW-620; test: Cytotoxicity against human SW620 cells after 48 hrs by trypan blue dye exclusion assay; format: functional; details: SW-620, 48 h
[38] = tested on: K562; test: Cytotoxicity against human K562 cells after 48 hrs by trypan blue dye exclusion assay; format: functional; details: K562, 48 h
[39] = tested on: SK-MEL-2; test: Cytotoxicity against human SK-MEL-2 cells after 48 hrs by trypan blue dye exclusion assay; format: functional; details: SK-MEL-2, 48 h
[40] = tested on: NCI-H23; test: Cytotoxicity against human NCI-H23 cells after 48 hrs by trypan blue dye exclusion assay; format: functional; details: NCI-H23, 48 h
[41] = tested on: HOP-92; test: Cytotoxicity against human HOP92 cells after 48 hrs by trypan blue dye exclusion assay; format: functional; details: HOP-92, 48 h
[42] = tested on: HT-29; test: Cytotoxicity against human HT-29 cells after 48 hrs by trypan blue dye exclusion assay; format: functional; details: HT-29, 48 h
[43] = tested on: NCI-H226; test: Cytotoxicity against human NCI-H226 cells after 48 hrs by trypan blue dye exclusion assay; format: functional; details: NCI-H226, 48 h
[44] = tested on: A549; test: Cytotoxicity against human A549 cells after 48 hrs by trypan blue dye exclusion assay; format: functional; details: A549, 48 h
[45] = tested on: MOLT-4; test: Cytotoxicity against human MOLT4 cells after 48 hrs by trypan blue dye exclusion assay; format: functional; details: MOLT-4, 48 h
[46] = tested on: EKVX; test: Cytotoxicity against human EKVX cells after 48 hrs by trypan blue dye exclusion assay; format: functional
[47] = tested on: T47D; test: Cytotoxicity against human T47D cells after 48 hrs by trypan blue dye exclusion assay; format: functional
[48] = tested on: DU-145; test: Cytotoxicity against human DU145 cells after 48 hrs by trypan blue dye exclusion assay; format: functional; details: DU-145, 48 h
[49] = tested on: SK-MEL-28; test: Cytotoxicity against human SK-MEL-28 cells after 48 hrs by trypan blue dye exclusion assay; format: functional; details: SK-MEL-28, 48 h
[50] = tested on: 786-0; test: Cytotoxicity against human 786-0 cells after 48 hrs by trypan blue dye exclusion assay; format: functional; details: 786-0, 48 h
[51] = tested on: M14; test: Cytotoxicity against human M14 cells after 48 hrs by trypan blue dye exclusion assay; format: functional; details: M14, 48 h
[52] = tested on: COLO 205; test: Cytotoxicity against human COLO205 cells after 48 hrs by trypan blue dye exclusion assay; format: functional; details: COLO 205, 48 h
[53] = tested on: OVCAR-8; test: Cytotoxicity against human OVCAR8 cells after 48 hrs by trypan blue dye exclusion assay; format: functional; details: OVCAR-8, 48 h
[54] = tested on: HCT-116; test: Cytotoxicity against human HCT116 cells after 48 hrs by trypan blue dye exclusion assay; format: functional; details: HCT-116, 48 h
[55] = tested on: OVCAR-4; test: Cytotoxicity against human OVCAR4 cells after 48 hrs by trypan blue dye exclusion assay; format: functional; details: OVCAR-4, 48 h
[56] = tested on: SR; test: Cytotoxicity against human SR cells after 48 hrs by trypan blue dye exclusion assay; format: functional
[57] = tested on: UO-31; test: Cytotoxicity against human UO31 cells after 48 hrs by trypan blue dye exclusion assay; format: functional; details: UO-31, 48 h
[58] = tested on: KM12; test: Cytotoxicity against human KM12 cells after 48 hrs by trypan blue dye exclusion assay; format: functional; details: KM12, 48 h
[59] = tested on: NCI-H322M; test: Cytotoxicity against human NCI-H322M cells after 48 hrs by trypan blue dye exclusion assay; format: functional
[60] = tested on: MDA-MB-231; test: Cytotoxicity against human MDA-MB-231 cells after 48 hrs by trypan blue dye exclusion assay; format: functional; details: MDA-MB-231, 48 h
[61] = tested on: NCI-H522; test: Cytotoxicity against human NCI-H522 cells after 48 hrs by trypan blue dye exclusion assay; format: functional; details: NCI-H522, 48 h
[62] = tested on: CAKI-1; test: Cytotoxicity against human CAKI-1 cells after 48 hrs by trypan blue dye exclusion assay; format: functional; details: CAKI-1, 48 h
[63] = tested on: ACHN; test: Cytotoxicity against human ACHN cells after 48 hrs by trypan blue dye exclusion assay; format: functional

Structure (SMILES): COc1ccc2c(c1)NC1=C(C(=O)OC1)C2c1cc(OC)c2c(c1)OCO2 (stereo not given)
- GI50 [1]: < 10 nM
- GI50 [2]: 19.9 nM
- GI50 [3]: < 10 nM
- GI50 [4]: < 10 nM
- GI50 [5]: 46 nM
- GI50 [6]: 16.8 nM
- GI50 [7]: 14.6 nM
- GI50 [8]: < 10 nM
- GI50 [9]: < 10 nM
- GI50 [10]: < 10 nM
- Activity [11]: inactive
- GI50 [12]: < 10 nM
- GI50 [13]: < 10 nM
- TGI [13]: 12.2 nM
- GI50 [14]: < 10 nM
- GI50 [15]: < 10 nM
- GI50 [16]: 28.3 nM
- Activity [17]: inactive
- GI50 [18]: 49.9 nM
- GI50 [19]: < 10 nM
- GI50 [20]: < 10 nM
- GI50 [21]: 60.7 nM
- GI50 [22]: > 100000 nM
- GI50 [23]: 81.7 nM
- Activity [24]: inactive
- GI50 [25]: 22.5 nM
- GI50 [26]: 19.9 nM
- GI50 [27]: 23.3 nM
- GI50 [28]: 12.1 nM
- GI50 [29]: 51.2 nM
- GI50 [30]: 20.9 nM
- GI50 [31]: 10.8 nM
- GI50 [32]: < 10 nM
- GI50 [33]: 42.6 nM
- GI50 [34]: 25 nM
- GI50 [35]: < 10 nM
- GI50 [36]: < 10 nM
- GI50 [37]: < 10 nM
- GI50 [38]: < 10 nM
- GI50 [39]: 26.3 nM
- GI50 [40]: 20.2 nM
- GI50 [41]: 86.2 nM
- GI50 [42]: < 10 nM
- GI50 [43]: 10.1 nM
- GI50 [44]: 14.6 nM
- GI50 [45]: 12.9 nM
- GI50 [46]: < 10 nM
- GI50 [47]: > 100000 nM
- GI50 [48]: 19 nM
- GI50 [49]: 56.4 nM
- GI50 [50]: 24.9 nM
- GI50 [51]: 13.2 nM
- GI50 [52]: < 10 nM
- TGI [52]: 26.8 nM
- GI50 [53]: < 10 nM
- GI50 [54]: < 10 nM
- GI50 [55]: 19.5 nM
- GI50 [56]: < 10 nM
- GI50 [57]: 30 nM
- GI50 [58]: < 10 nM
- GI50 [59]: 58.3 nM
- GI50 [60]: 26.8 nM
- GI50 [61]: < 10 nM
- GI50 [62]: 50.2 nM
- GI50 [63]: 56.7 nM
